Laboratory results reported in patent US20070166367A1, “Adept or gdept producing acetaldehyde” (priority 2004, published 2007).
Like-named read-outs stand apart in the source and are kept apart here.

How the values were obtained:
DNA = settings: cited from earlier work
Daudi lymphoma cells = assay: chronic exposure of Daudi lymphoma cells to acetaldehyde in tissue culture; format: cell-based
Protocol: The effect of acetaldehyde on Daudi lymphoma cells was investigated. Chronic exposure to acetaldehyde of Daudi lymphoma cells in tissue culture was investigated with the media and acetaldehyde replaced every 24 hours, with the lids either tight closed or slightly open (the norm for tissue culture).
B. Repeat method as above changing media and replacing acetaldehyde every 24 hours.
Results are shown as the number of cells×10^4 remaining viable at each time point. (Days 0-6)

[1] = ethanol fed animals, cited from earlier work
[2] = in vitro acetaldehyde and cisplatin toxicity assay; format: cell-based; settings: human, Daudi cells; higher concentrations (500 uM and 1 mM), day 3, FIG. 1; read-out: viable cell numbers as % of starting number
Protocol: (§1) Standard tissue culture techniques were used to maintain Hela, Daudi, Jurkat, CMT-64 cells in flasks in DMEM+10% FCS in a 37° C. incubator.
(§2) Cell lines subcloned into 25-cm^2 flasks and incubated in media containing dilutions of acetaldehyde, cisplatin or both. Flasks remained sealed during incubation and the media and acetaldehyde/cisplatin were replaced daily. Viable cell counts were made using Trypan blue exclusion and a standard haemocytometer.

CMT-64 = assay: in vitro acetaldehyde and cisplatin toxicity assay; format: cell-based
Protocol: as §1, §2

Daudi = assay: in vitro acetaldehyde and cisplatin toxicity assay; format: cell-based
Protocol: as §1, §2

[3] = tissue culture at 37° C., cited from earlier work
Jurkat = assay: in vitro acetaldehyde toxicity assay; format: cell-based
Protocol: as §1, §2

[4] = in vitro acetaldehyde toxicity assay; format: cell-based; settings: human, Jurkat cells; higher concentrations (500 uM and 1 mM), day 3, FIG. 1; read-out: viable cell numbers as % of starting number
Protocol: as §1, §2

Hela = assay: in vitro acetaldehyde toxicity assay; format: cell-based; settings: 250 uM acetaldehyde
Protocol: as §1, §2

[5] = target: T1, Acetaldehyde dehydrogenase 2 (ALDH2) (Homo sapiens, UniProt P05091); settings: cited from earlier work
T1 sequence (P05091 18-517): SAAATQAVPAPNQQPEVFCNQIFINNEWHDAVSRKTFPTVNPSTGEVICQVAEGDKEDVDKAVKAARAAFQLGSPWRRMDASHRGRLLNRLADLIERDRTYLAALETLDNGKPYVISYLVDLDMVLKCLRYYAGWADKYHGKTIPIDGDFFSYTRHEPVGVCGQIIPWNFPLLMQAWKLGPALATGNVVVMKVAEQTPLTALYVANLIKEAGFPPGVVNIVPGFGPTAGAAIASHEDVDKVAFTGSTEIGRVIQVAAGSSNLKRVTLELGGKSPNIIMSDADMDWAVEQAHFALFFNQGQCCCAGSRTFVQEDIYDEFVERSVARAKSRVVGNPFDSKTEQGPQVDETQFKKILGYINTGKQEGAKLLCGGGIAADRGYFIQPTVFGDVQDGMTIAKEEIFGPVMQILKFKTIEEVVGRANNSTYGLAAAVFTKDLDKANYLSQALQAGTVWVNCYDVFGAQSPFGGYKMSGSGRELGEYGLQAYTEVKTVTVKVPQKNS

[6] = tested on: CaCo-2 (Human colorectal cancer cells); settings: cited from earlier work; for Doubling Time: 72 hrs
[7] = cited from earlier work
[8] = acetaldehyde in breath and blood after ethanol consumption; format: in vivo; settings: suggested from breath values and partition coefficient
Human Fibroblasts = settings: 5 hr exposure, cited from earlier work

SMILES: CC=O [acetaldehyde]
- concentration that is toxic and produces irreparable DNA damage (DNA): 1.56 mM
- Numbers of viable cells (Daudi lymphoma cells; 100 μM closed, 4S hr): 280000 mL⁻¹
- Numbers of viable cells (Daudi lymphoma cells; 100 μM closed, 22 hr): 230000 mL⁻¹
- Numbers of viable cells (Daudi lymphoma cells; 100 μM closed, 68 hr): 370000 mL⁻¹
- Numbers of viable cells (Daudi lymphoma cells; 100 μM open, 22 hr): 260000 mL⁻¹
- Numbers of viable cells (Daudi lymphoma cells; 100 μM open, 68 hr): 510000 mL⁻¹
- cell killing (Daudi lymphoma cells; 100 μM, 6 days exposure): high levels of cell death
- cell killing (Daudi lymphoma cells; 100 μM, by 68 hours): no cell death but some inhibition of the rate of growth
- number of cells remaining viable (Daudi lymphoma cells; 100 μM, day 1): 25 ×10^4
- number of cells remaining viable (Daudi lymphoma cells; 100 μM, day 2): 28 ×10^4
- number of cells remaining viable (Daudi lymphoma cells; 100 μM, day 3): 32 ×10^4
- number of cells remaining viable (Daudi lymphoma cells; 100 μM, day 4): 26 ×10^4
- number of cells remaining viable (Daudi lymphoma cells; 100 μM, day 5): 19 ×10^4
- number of cells remaining viable (Daudi lymphoma cells; 100 μM, day 6): 2 (two) ×10^4
- number of cells remaining viable (Daudi lymphoma cells; 250 μM, day 1): 31 ×10^4
- number of cells remaining viable (Daudi lymphoma cells; 250 μM, day 2): 25 ×10^4
- number of cells remaining viable (Daudi lymphoma cells; 250 μM, day 3): 14 ×10^4
- number of cells remaining viable (Daudi lymphoma cells; 250 μM, day 4): 13 ×10^4
- number of cells remaining viable (Daudi lymphoma cells; 250 μM, day 5): 0 ×10^4
- cell killing (Daudi lymphoma cells; 500 μM and above, 3-4 days exposure): high levels of cell death
- Numbers of viable cells (Daudi lymphoma cells; 500 μM closed, 4S hr): 180000 mL⁻¹
- Numbers of viable cells (Daudi lymphoma cells; 500 μM closed, 22 hr): 200000 mL⁻¹
- Numbers of viable cells (Daudi lymphoma cells; 500 μM closed, 68 hr): 40000 mL⁻¹
- Numbers of viable cells (Daudi lymphoma cells; 500 μM open, 4S hr): 210000 mL⁻¹
- Numbers of viable cells (Daudi lymphoma cells; 500 μM open, 22 hr): 220000 mL⁻¹
- Numbers of viable cells (Daudi lymphoma cells; 500 μM open, 68 hr): 40000 mL⁻¹
- number of cells remaining viable (Daudi lymphoma cells; 500 μM, day 1): 31 ×10^4
- number of cells remaining viable (Daudi lymphoma cells; 500 μM, day 2): 16 ×10^4
- number of cells remaining viable (Daudi lymphoma cells; 500 μM, day 3): 11 ×10^4
- number of cells remaining viable (Daudi lymphoma cells; 500 μM, day 4): 3 ×10^4
- number of cells remaining viable (Daudi lymphoma cells; 500 μM, day 5): 0 ×10^4
- cell killing (Daudi lymphoma cells; 500 μM, within 3 days): nearly all the cells are dead
- number of cells remaining viable (Daudi lymphoma cells; 750 μM, day 1): 28 ×10^4
- number of cells remaining viable (Daudi lymphoma cells; 750 μM, day 2): 18 ×10^4
- number of cells remaining viable (Daudi lymphoma cells; 750 μM, day 3): 5 ×10^4
- number of cells remaining viable (Daudi lymphoma cells; 750 μM, day 4): 2 ×10^4
- number of cells remaining viable (Daudi lymphoma cells; 750 μM, day 5): 0 ×10^4
- Numbers of viable cells (Daudi lymphoma cells; 1000 μM closed, 4S hr): 30000 mL⁻¹
- Numbers of viable cells (Daudi lymphoma cells; 1000 μM closed, 22 hr): 140000 mL⁻¹
- Numbers of viable cells (Daudi lymphoma cells; 1000 μM closed, 68 hr): 0 mL⁻¹
- Numbers of viable cells (Daudi lymphoma cells; 1000 μM open, 4S hr): 80000 mL⁻¹
- Numbers of viable cells (Daudi lymphoma cells; 1000 μM open, 22 hr): 180000 mL⁻¹
- Numbers of viable cells (Daudi lymphoma cells; 1000 μM open, 68 hr): 20000 mL⁻¹
- cell killing (Daudi lymphoma cells; 1000 μM, within 3 days): kill all the cells
- cellular conc ([1]; colon): about 250 μM
- Acetaldehyde levels in colonic contents [1]: exceed 3 mM
- viability at 3 days [2]: 37%
- concentrations at which significant growth inhibition occurred (CMT-64): over 500 uM
- effect on proliferation (CMT-64; 250 uM acetaldehyde): reduction in the rate of proliferation
- cell number as % of starting number (CMT-64; FIG. 2): 170%
- effect on proliferation (Daudi; 250 uM acetaldehyde): reduction in the rate of proliferation
- cell number as % of starting number (Daudi; higher cell density, 3 days exposure, FIG. 2): 67%
- ½ life [3]: about 30 minutes
- ½ life ([3]; listed as Acetaldehyde): 30 min
- effect on proliferation (Jurkat; 250 uM acetaldehyde): reduction in the rate of proliferation
- viable cells (Jurkat; day 4, FIG. 1): no Jurkat cells viable
- viability at 3 days [4]: 7%
- effect on proliferation (Hela): reduction in the rate of proliferation
- Km [5]: 3.5 µM
- Cytotoxicity ([6]; 500 μM and 1000 μM acetaldehyde for 72 hrs): No significant effects.
- Doubling Time ([6]; 500 μM): 150 % of control
- Doubling Time ([6]; 1000 μM): 270 % of control
- concentrations of acetaldehyde in the breath ([7]; after ethanol consumption, different patient groups): 5 to 1300 nM
- systemic concentrations of acetaldehyde ([7]; volunteers consuming alcohol with an hepatic ALDH inhibitor): up to 240 uM
- blood values [8]: 1 to 260 µM
- % survival (Human Fibroblasts; 1 mM): 75%
- % survival (Human Fibroblasts; 2 mM): 55%
